According to ChEMBL document CHEMBL1133491, “Synthesis and binding to plant lectins of sulfur-containing analogues of betaGal1,3 alphaGalNAc (T-antigen)” (Bioorg Med Chem Lett, 2000):

Columns and labels:
[1] = Binding affinity to soybean agglutinin was evaluated; parameters: species or system Glycine max
[2] = Binding affinity to Agglutinin was evaluated; parameters: species or system Arachis hypogaea
Erythrina corallodendron = assay: Binding affinity to Erythrina corallodendron lectin was evaluated; type: functional

Row | Compound | IC50 [1] | IC50 [2] | IC50 (Erythrina corallodendron)
1 | CC(=O)N[C@@H]1[C@H](Oc2ccccc2)O[C@@H](CO)[C@@H](O)[C@@H]1O | 1720 µM | 2510 µM | 1150 µM
2 | CC(=O)N[C@@H]1[C@H](Oc2cccc3ccccc23)O[C@@H](CO)[C@@H](O)[C@@H]1O | 1290 µM | 1950 µM | 1510 µM
